Assay results taken from article PMC3361616 (European Journal of Medicinal Chemistry, 2012).
Where a name gives a salt, the structure may show the parent alone.

What was measured:
5HT1A receptor = target: T1, 5HT1A receptor (Homo sapiens, UniProt P08908); experiment: NIMH-PDSP radioligand binding, 5HT1A; conditions: for fold increase in binding affinity to the 5HT1A receptor: over compound 8
T1 sequence (P08908 1-422): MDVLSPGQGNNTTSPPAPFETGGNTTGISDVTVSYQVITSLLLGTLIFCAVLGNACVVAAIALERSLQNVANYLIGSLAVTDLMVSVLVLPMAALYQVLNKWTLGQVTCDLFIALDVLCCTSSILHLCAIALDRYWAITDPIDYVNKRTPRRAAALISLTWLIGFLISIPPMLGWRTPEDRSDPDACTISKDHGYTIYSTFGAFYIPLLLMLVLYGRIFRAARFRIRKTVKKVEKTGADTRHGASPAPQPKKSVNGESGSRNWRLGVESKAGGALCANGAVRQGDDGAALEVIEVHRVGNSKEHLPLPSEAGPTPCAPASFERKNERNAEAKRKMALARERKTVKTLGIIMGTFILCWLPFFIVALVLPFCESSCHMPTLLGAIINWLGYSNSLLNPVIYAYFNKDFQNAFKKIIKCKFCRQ

[1] = target: serotonin transporter (SERT) (Homo sapiens, UniProt P31645); experiment: NIMH-PDSP radioligand binding, SERT
D4 receptor (DAD4) = target: T2, D4 receptor (DAD4) (Homo sapiens, UniProt P21917); experiment: NIMH-PDSP radioligand binding, DAD4
T2 sequence (P21917 1-419): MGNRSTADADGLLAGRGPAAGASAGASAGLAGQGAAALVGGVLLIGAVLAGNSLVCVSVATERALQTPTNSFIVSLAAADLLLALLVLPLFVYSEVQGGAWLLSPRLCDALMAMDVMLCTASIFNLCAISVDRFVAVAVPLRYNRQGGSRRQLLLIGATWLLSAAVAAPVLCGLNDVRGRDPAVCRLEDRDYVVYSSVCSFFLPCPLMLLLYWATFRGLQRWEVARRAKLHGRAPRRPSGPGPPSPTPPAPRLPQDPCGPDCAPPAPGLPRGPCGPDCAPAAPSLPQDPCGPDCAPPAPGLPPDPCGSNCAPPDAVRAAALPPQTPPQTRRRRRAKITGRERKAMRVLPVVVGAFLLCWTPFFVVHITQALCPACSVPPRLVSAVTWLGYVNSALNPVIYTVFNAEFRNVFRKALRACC

Chain of serotonin transporter (SERT) (P31645 whole entry, species assumed): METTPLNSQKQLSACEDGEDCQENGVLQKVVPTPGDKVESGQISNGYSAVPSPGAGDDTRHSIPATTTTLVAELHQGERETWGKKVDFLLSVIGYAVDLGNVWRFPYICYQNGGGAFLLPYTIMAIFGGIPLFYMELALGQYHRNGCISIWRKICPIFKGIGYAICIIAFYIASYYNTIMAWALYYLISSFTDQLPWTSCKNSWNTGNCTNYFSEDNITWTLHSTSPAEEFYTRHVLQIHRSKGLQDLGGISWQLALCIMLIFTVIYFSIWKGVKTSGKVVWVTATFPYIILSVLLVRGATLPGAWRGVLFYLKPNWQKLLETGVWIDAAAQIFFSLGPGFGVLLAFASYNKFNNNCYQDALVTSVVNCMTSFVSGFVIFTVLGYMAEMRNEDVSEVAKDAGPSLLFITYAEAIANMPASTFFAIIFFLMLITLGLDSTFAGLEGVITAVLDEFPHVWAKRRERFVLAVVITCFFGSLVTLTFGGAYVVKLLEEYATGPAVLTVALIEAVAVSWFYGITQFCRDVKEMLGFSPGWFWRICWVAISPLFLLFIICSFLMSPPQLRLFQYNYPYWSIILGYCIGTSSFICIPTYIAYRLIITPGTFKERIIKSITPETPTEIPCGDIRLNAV

Clc1ccc(N2CCN(CCCCc3nc4ccccc4s3)CC2)cc1 [Compound 8, 2-(4-(4-(4-Chlorophenyl)piperazin-1-yl)butyl)benzo[d]thiazole]
fold increase in binding to the 5HT1A receptor (5HT1A receptor; compared with compound 4): ~3 fold | fold decrease in binding at the SERT site ([1]; compared with compound 4): 2.6 fold

c1ccc2c(c1)CCN(CCCCc1nc3ccccc3s1)C2 [Compound 11, 2-(4-Benzo[d]thiazol-2-yl-butyl)-1,2,3,4-tetrahydro-isoquinoline p-toluenesulfonate]
fold increase in binding affinity to the 5HT1A receptor (5HT1A receptor): about 18 fold

O=C(CCCCN1CCN(c2ccc(Cl)cc2)CC1)c1nc2ccccc2s1 [Compound 20, 1-(Benzo[d]thiazol-2-yl)-5-(4-(4-chlorophenyl)piperazin-1-yl)pentan-1-one hydrochloride]
fold increase in binding affinity to the 5HT1A receptor (5HT1A receptor): over 3 fold | fold enhancement of binding to SERT ([1]; compared with compound 8): over 2 fold | Ki (D4 receptor (DAD4)): 0.1 ± 0.01 µM

O=C(CCCCN1CCC(c2ccccc2)CC1)c1nc2ccccc2s1 [Compound 23, 1-(Benzo[d]thiazol-2-yl)-5-(4-phenyl-piperidin-1-yl)-pentan-1-one hydrochloride]
fold decrease in binding affinity at the 5HT1A receptor (5HT1A receptor; compared with compound 22): 2 fold
